Drawing on patent US9133224B2, “Macrocyclic kinase inhibitors” (OSI Pharmaceuticals, LLC, priority 2010, dated 2015), this text covers IC50 for 24 molecules.

Assay [1] has as its target T1, GST-tagged full-length FAK enzyme (PTK2) (Homo sapiens, UniProt Q05397).
T1 construct: GST-tagged full-length FAK enzyme (PTK2, Invitrogen PV4085); GST; purchased Invitrogen PV4085
Nature of the assay: Biochemical Omnia Assay (FAK). As for the experimental part: Biochemical Omnia Assay Protocol
The Omnia Assay (Invitrogen) has been optimized for GST-tagged full-length FAK enzyme (PTK2, Invitrogen PV4085).
All compound concentrations were assayed in duplicate. Initial compound dilutions were prepared at 100× concentration in 100% DMSO from a 10 mM stock solution. Compounds were further diluted 1:25 in assay buffer resulting in a 4× concentrated solution.
In running the assay, 5 μL of the above 4× concentrated compound solution (or 4% DMSO for positive controls) was added to the assay plate followed by 5 μL of a solution containing peptide (40 μM) and ATP (200 μM) in assay buffer. The reaction was initiated by the addition of 10 μL of FAK (50 nM) in assay buffer, or assay buffer alone for negative controls. The increase in fluorescence due to peptide phosphorylation was monitored continuously as a function of time using a Spectramax M5 plate reader (Molecular Devices) equipped with SoftMax Pro 5.2 software.
IC50 values were determined from the slopes of the linear progress curves by non-linear curve-fitting using GraphPad Prism 5 (GraphPad Software, Inc.).

Another assay concerns the target T2, FAK (Homo sapiens, UniProt Q05397).
T2 construct: endogenous in cells; host or cells: U87MG glioblastoma cells (ATCC HTB-14)
Description: Cell-based capture ELISA for inhibition of FAK autophosphorylation [pY397] in U87MG cells. As to the method:
Cell-Based Assays for Inhibition of FAK Autophosphorylation: MiaPaCa2 and U87MG
The ability of compounds to inhibit FAK autophosphorylation was determined in a cell-based capture ELISA assay using U87MG glioblastoma cells (ATCC, Cat # HTB-14) and the FAK [pY397]ELISA kit from Invitrogen (KHO0441). The assay determines the ability of compounds to block endogenous autophosphorylation of FAK stimulated by fibronectin. Cells plated on fibronectin coated 96-well plate were incubated with compounds at various concentrations in the complete growth medium for 2 h. Cell lysates were then prepared and FAK protein was captured onto a FAK antibody-coated 96-well ELISA plate. The phosphotyrosine content of FAK protein was then monitored by quantitation of degree of binding of an antibody that recognizes only the phosphorylated FAK at Y397 within the captured protein.
Reagents Provided in Biosource FAK [pY397]
Cultures of U87MG cells growing in MEM (Earles) containing non-essential amino acids, sodium pyruvate (1 mM), […] (1%) and 10% fetal bovine serum were detached by trypsin-EDTA and suspended in cell growth medium. Cells were then plated onto fibronectin (600 ng/well)-coated 96-well flat bottom plates at 1.7×10^4 cells per well in 60 uL cell growth medium and incubated overnight at 37° C. in a CO2 incubator.
Compound dilutions were prepared from 10 mM DMSO stocks by dilution in cell growth medium, the final concentration of DMSO in the assay being 0.6%. […] The cells were then incubated with compounds at 37° C. for 2 h. The medium was removed by aspiration and cells were lysed by addition of 20 uL of ice-cold cell lysis buffer per well. The plates were kept on ice for 20 min and 50 uL of standard diluent was added to each well. 50 uL of cell lysate from each well was transferred to respective wells in an assay plate and 50 uL of detection antibody was added to all wells except H1-H6 which were no antibody control wells. Capture assay plates were incubated overnight in a cold room.
Following incubation of the cell lysates and detection antibodies in the ELISA plate, the wells were washed 4 times with 120 uL of wash buffer (1×), then 100 uL of diluted HRP conjugated antibody (1:100 dil in diluent) was added to each well, and the plate was incubated at RT for 30 min. The wells were then washed for 4 times with 120 uL of wash buffer (1×) and 100 uL of chromogen was added to each well and incubated in the dark at RT for 5-10 min. 100 uL of stop solution was added to each well and the absorbance measured at 450 nm, 0.1 s.
Comparison of the assay signals obtained in the presence of compound with those of positive and negative controls (cells with no compound and no detection antibody being added), allows degree of inhibition of phospho-FAK [Y397] to be determined over a range of compound concentrations. […] The assay as described above was modified to determine the effect of inclusion of 50% (v/v) mouse or human plasma. In this assay, the compound plate was prepared as 2× concentration in 100 uL of 100% mouse or human plasma, and 60 uL of this was added to 60 uL of culture medium and incubated at 37° C. incubator for 2 h. The rest of the assay was carried out as described above.

Setting [2] is: 50% (v/v) human plasma, mean IC50, read-out: FAK Activity Mechanistic (U87MG) HP.
[3] abbreviates: 50% (v/v) mouse plasma, mean IC50, read-out: FAK Activity Mechanistic (U87MG) MP.
The mark [4] stands for this setting: no plasma present, mean IC50, read-out: FAK Activity Mechanistic (U87MG) NP.
The mark [5] stands for this setting: mean IC50, [ATP] = 50uM, read-out: FAK Activity Biochemical OMNIA, [ATP] = 50uM.

Like-named read-outs stand apart in the source and are kept apart here.

T2 sequence (Q05397 whole entry): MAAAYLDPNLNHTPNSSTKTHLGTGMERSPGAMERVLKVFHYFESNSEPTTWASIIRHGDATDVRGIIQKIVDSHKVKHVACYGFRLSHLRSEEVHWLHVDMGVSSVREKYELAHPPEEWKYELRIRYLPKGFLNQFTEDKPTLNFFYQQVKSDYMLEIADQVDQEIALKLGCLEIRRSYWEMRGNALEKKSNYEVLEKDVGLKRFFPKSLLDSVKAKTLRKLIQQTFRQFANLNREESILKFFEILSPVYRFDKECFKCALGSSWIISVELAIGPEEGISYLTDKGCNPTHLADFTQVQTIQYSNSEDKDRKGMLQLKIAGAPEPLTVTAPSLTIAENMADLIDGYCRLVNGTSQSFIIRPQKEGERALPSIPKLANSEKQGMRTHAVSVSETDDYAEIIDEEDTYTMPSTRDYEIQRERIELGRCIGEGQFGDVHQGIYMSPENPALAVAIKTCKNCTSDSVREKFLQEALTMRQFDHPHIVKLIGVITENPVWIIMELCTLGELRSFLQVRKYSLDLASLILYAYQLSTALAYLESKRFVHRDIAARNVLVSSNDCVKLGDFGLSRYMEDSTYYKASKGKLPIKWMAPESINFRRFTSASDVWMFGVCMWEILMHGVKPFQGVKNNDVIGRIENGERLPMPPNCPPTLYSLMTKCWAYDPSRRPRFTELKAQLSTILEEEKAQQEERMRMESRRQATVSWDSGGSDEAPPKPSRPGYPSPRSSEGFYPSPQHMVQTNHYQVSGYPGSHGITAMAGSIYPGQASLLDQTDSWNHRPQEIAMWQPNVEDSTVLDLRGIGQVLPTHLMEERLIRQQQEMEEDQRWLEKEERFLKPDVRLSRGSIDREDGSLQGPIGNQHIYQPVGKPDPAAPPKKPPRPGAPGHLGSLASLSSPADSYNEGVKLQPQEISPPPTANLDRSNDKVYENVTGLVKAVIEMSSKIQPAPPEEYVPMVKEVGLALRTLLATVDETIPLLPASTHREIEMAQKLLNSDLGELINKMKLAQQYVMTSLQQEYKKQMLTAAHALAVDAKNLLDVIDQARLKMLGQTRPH
T1 sequence (Q05397 whole entry): as above

On to `CCOP1(=O)Cc2ccc(c(OC)c2)Nc2ncc(C(F)(F)F)c(n2)Nc2ccc(nc2C(=O)NC)-c2cn(nc2OC)CCCO1` (single isomer, unassigned) [Example 48A], for which the IC50 in assay [1] was less than 400 nM; at FAK (setting [2]), greater than 4000 nM; at FAK (setting [3]), 400 to 4000 nM; at FAK (setting [4]) it was less than 400 nM.
For `CCCP1(=O)Cc2ccc(c(OC)c2)Nc2ncc(C(F)(F)F)c(n2)Nc2ccc(cc2C(=O)NC)-c2cnn(c2)CCCO1` (racemic) [Example 66], the IC50 (in assay [1] (setting [5]); on FAK (setting [2]); on FAK (setting [3]); at FAK (setting [4])) was less than 400 nM in each case.
As for `CCNC(=O)c1cc2ccc1Nc1nc(ncc1C(F)(F)F)Nc1ccc(cc1OC)CP(=O)(OCC)OCCCn1cc-2cn1` (racemic) [Example 9], the IC50 in assay [1] is less than 400 nM; at FAK (setting [2]), less than 400 nM; on FAK (setting [3]) it was 400 to 4000 nM; on FAK (setting [4]) it was less than 400 nM.
Turning to `CCOP1(=O)Cc2ccc(c(OC)c2Cl)Nc2ncc(C(F)(F)F)c(n2)Nc2ccc(nc2C(=O)NC)-c2cnn(c2)CCCO1` (single isomer, unassigned) [Example 54A], the IC50 was less than 400 nM in assay [1], greater than 4000 nM on FAK (setting [2]) and 400 to 4000 nM at FAK (setting [4]).
Turning to `CCOP1(=O)Cc2ccc(c(OC)c2)Nc2ncc(C(F)(F)F)c(n2)Nc2ccc(nc2C(=O)NC)-c2cn(nc2OC)CCCO1` (racemic) [Example 48], the IC50 in assay [1] was less than 400 nM; at FAK (setting [2]), less than 400 nM; on FAK (setting [3]), 400 to 4000 nM; at FAK (setting [4]), less than 400 nM.
On to `CCOP1(=O)Cc2ccc(c(OC)c2)Nc2ncc(C(F)(F)F)c(n2)Nc2ccc(nc2C(=O)NC)-c2cnn(c2C)CCCO1` (single isomer, unassigned) [Example 35A], for which the IC50 was less than 400 nM in assay [1] (setting [5]), 400 to 4000 nM at FAK (setting [2]) and less than 400 nM at FAK (setting [4]).
`CCOP1(=O)Cc2ccc(c(OC)c2)Nc2ncc(C(F)(F)F)c(n2)Nc2ccc(c3c2C(=O)N(C)C3)-c2cnn(c2)CCCCO1` (racemic) [Example 17]: the IC50 (in assay [1] (setting [5]); on FAK (setting [2]); at FAK (setting [4])) was less than 400 nM throughout.
For the molecule `CCOP1(=O)Cc2ccc(c(OC)c2)Nc2ncc(C(F)(F)F)c(n2)Nc2ccc(nc2C(=O)NC)-c2cc(C(=O)N(C)C)n(c2)CCCO1` (racemic) [Example 41], the IC50 (in assay [1]; at FAK (setting [2]); on FAK (setting [4])) was less than 400 nM throughout.
For `CCOP1(=O)Cc2ccc(c(OC)c2Cl)Nc2ncc(C(F)(F)F)c(n2)Nc2ccc(nc2C(=O)NC)-c2cnn(c2)CC2(COC2)CO1` (racemic) [Example 55], the IC50 is less than 400 nM in assay [1], less than 400 nM on FAK (setting [2]), 400 to 4000 nM at FAK (setting [3]) and less than 400 nM on FAK (setting [4]).
On to `CCOP1(=O)Cc2ccc(c(OC)c2)Nc2ncc(C(F)(F)F)c(n2)Nc2ccc(cc2C(=O)N(C)C)-c2cnn(c2)CCCO1` (racemic) [Example 12], for which the IC50 in assay [1] (setting [5]) was less than 400 nM; on FAK (setting [2]), 400 to 4000 nM; on FAK (setting [4]) it was less than 400 nM.
For `CCOP1(=O)Cc2ccc(c(OC)c2)Nc2ncc(C(F)(F)F)c(n2)Nc2ccc(nc2C(=O)NC)-c2cnn(c2)CC2(COC2)CO1` (single isomer, unassigned) [Example 44A], the IC50 (in assay [1]; at FAK (setting [2]); at FAK (setting [4])) was less than 400 nM in each case.
As to `CCOP1(=O)Cc2ccc(c(OC)c2)Nc2ncc(C(F)(F)F)c(n2)Nc2ccc(cc2C(=O)NC)-c2cnn(c2)CCCO1` (racemic) [Example 4], the IC50 (in assay [1]; at FAK (setting [2]); on FAK (setting [4])) was less than 400 nM throughout.
As to `CCOP1(=O)Cc2ccc(c(OC)c2)Nc2ncc(C(F)(F)F)c(n2)Nc2ccc(nc2C(=O)NOC)-c2cnn(c2)CCCO1` (racemic) [Example 46], the IC50 is less than 400 nM in assay [1], less than 400 nM at FAK (setting [2]), 400 to 4000 nM at FAK (setting [3]) and less than 400 nM at FAK (setting [4]).
As to `CCOP1(=O)Cc2cc(OC)c(cc2Cl)Nc2ncc(C(F)(F)F)c(n2)Nc2ccc(nc2C(=O)NC)-c2cnn(c2)CCCO1` (racemic) [Example 56], the IC50 in assay [1] was less than 400 nM; at FAK (setting [2]) it was greater than 4000 nM; on FAK (setting [3]) it was 400 to 4000 nM; on FAK (setting [4]) it was less than 400 nM.
Regarding `CCOP1(=O)Cc2ccc(c(Cl)c2)Nc2ncc(C(F)(F)F)c(n2)Nc2ccc(nc2C(=O)NC)-c2cnn(c2)CCCO1` (racemic) [Example 24], the IC50 in assay [1] (setting [5]) was less than 400 nM; on FAK (setting [2]) it was less than 400 nM; at FAK (setting [4]), 400 to 4000 nM.
In the case of `CCOP1(=O)Cc2ccc(c(F)c2)Nc2ncc(C(F)(F)F)c(n2)Nc2ccc(nc2C(=O)NC)-c2cnn(c2)CCCO1` (racemic) [Example 22], the IC50 in assay [1] is less than 400 nM; on FAK (setting [2]), less than 400 nM; at FAK (setting [4]) it was 400 to 4000 nM.
As to `CCP1(=O)Cc2ccc(c(OC)c2)Nc2ncc(C(F)(F)F)c(n2)Nc2ccc(nc2C(=O)NC)-c2cnn(c2)CCCO1` (single isomer, unassigned) [Example 67A], the IC50 in assay [1] (setting [5]) was less than 400 nM; on FAK (setting [2]) it was 400 to 4000 nM; at FAK (setting [3]), 400 to 4000 nM; at FAK (setting [4]), less than 400 nM.
In the case of `CCOP1(=O)Cc2ccc(c(OC)c2)Nc2ncc(C(F)(F)F)c(n2)Nc2ccc(nc2C(=O)NC)-c2cnn(c2)CC[C@H](C)O1` (mixture of isomers) [Example 70], the IC50 was less than 400 nM at FAK (setting [2]), 400 to 4000 nM at FAK (setting [3]) and less than 400 nM at FAK (setting [4]).
Turning to `CCOP1(=O)Cc2ccc(c(OC)c2)Nc2ncc(C(F)(F)F)c(n2)Nc2ccc(nc2C(=O)NC)-c2cnn(c2)CC2(CC2)CO1` (racemic) [Example 63], the IC50 on FAK (setting [2]) and at FAK (setting [4]) was less than 400 nM in each case.
For `CCOP1(=O)Cc2ccc(c(OC)c2)Nc2ncc(C(F)(F)F)c(n2)Nc2ccc(nc2C(=O)NC)-c2cnn(c2)CC[C@@H](C)O1` (mixture of isomers) [Example 69], the IC50 at FAK (setting [2]) and on FAK (setting [4]) was less than 400 nM each time.
For the molecule `CNC(=O)c1nc2ccc1Nc1nc(ncc1C(F)(F)F)Nc1ccc(cc1OC)CP(C)(=O)OCCCn1cc-2cn1` (single isomer, unassigned) [Example 61B], the IC50 in assay [1] (setting [5]) is less than 400 nM.
For the molecule `CCP1(=O)Cc2ccc(c(OC)c2)Nc2ncc(C(F)(F)F)c(n2)Nc2ccc(nc2C(=O)NC)-c2cnn(c2)CC2(CC2)CO1` (racemic) [Example 71], the IC50 on FAK (setting [2]), at FAK (setting [3]) and on FAK (setting [4]) was less than 400 nM throughout.
`CNC(=O)c1nc2ccc1Nc1nc(ncc1C(F)(F)F)Nc1ccc(cc1OC)CP(=O)(OC(C)C)OCCCn1cc-2cn1` (single isomer, unassigned) [Example 72A]: the IC50 at FAK (setting [2]) is 400 to 4000 nM; at FAK (setting [3]), less than 400 nM; at FAK (setting [4]), less than 400 nM.
As to `CNC(=O)c1nc2ccc1Nc1nc(ncc1C(F)(F)F)Nc1ccc(cc1OC)CP(=O)(OC(C)C)OCCCn1cc-2cn1` (racemic) [Example 72], the IC50 on FAK (setting [2]), at FAK (setting [3]) and at FAK (setting [4]) was less than 400 nM throughout.
